Measured values reported in patent US9315491B2 (DEVELOPMENT CENTER FOR BIOTECHNOLOGY, priority 2009, dated 2016).

Key:
[1] = target: recombinant mTOR (Homo sapiens (Human), UniProt P42345); assay: mTOR kinase assay (33P incorporation into 4EBP1); assay type: biochemical; settings: compound at 10 μM, 10 μM ATP
How it was run: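 Recombinant human mTOR (50 ng) phosphorylated His-tagged 4EBP1 (300 ng) with 10 μM ATP plus [γ-33P]-ATP in HEPES pH 7.5, MnCl2, EGTA and DTT for 30 min at 30° C. Labelled 4EBP1 was filter-captured and counted. IC50 was derived from eight-point duplicate dilution series.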

[2] = target: PI3K (p110α/p85α) (Homo sapiens (Human), UniProt P42336); assay: PI3K HTRF enzyme assay, p110α/p85α; assay type: biochemical; settings: read-out: % inhibition @ 500 nM p110α; compound at 500 nM, 10 μM ATP
PI3K (p110α/p85α), sequence (P42336 whole entry, species assumed): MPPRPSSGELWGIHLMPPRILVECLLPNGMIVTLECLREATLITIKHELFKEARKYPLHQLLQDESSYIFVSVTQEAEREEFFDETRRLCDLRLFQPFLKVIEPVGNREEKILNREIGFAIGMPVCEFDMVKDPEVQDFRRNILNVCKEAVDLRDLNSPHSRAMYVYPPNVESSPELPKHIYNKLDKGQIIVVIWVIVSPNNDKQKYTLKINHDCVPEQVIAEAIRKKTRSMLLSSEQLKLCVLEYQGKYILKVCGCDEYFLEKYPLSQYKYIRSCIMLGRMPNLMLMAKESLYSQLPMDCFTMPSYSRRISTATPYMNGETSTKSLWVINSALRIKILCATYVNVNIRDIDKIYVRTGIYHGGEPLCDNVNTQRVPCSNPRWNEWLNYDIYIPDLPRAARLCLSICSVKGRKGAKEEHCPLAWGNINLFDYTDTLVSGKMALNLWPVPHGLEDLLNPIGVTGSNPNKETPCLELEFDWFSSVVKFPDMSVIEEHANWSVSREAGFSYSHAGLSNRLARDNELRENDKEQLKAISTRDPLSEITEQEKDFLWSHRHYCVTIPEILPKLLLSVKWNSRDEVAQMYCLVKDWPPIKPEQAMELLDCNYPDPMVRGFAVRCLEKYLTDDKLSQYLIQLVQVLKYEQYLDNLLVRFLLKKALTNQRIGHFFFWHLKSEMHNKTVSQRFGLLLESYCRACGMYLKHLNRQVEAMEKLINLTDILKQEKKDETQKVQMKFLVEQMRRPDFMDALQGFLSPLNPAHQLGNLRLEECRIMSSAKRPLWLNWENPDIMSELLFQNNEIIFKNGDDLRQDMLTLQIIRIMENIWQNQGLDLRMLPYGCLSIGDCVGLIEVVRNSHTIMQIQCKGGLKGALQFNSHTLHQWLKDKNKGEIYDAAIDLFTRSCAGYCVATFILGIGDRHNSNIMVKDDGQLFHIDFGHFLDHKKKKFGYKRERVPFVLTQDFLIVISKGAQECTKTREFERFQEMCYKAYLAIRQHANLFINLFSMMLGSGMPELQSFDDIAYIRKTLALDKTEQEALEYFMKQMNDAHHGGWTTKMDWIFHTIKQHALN
PI3K (p110α/p85α), sequence (P27986 whole entry partner, species assumed): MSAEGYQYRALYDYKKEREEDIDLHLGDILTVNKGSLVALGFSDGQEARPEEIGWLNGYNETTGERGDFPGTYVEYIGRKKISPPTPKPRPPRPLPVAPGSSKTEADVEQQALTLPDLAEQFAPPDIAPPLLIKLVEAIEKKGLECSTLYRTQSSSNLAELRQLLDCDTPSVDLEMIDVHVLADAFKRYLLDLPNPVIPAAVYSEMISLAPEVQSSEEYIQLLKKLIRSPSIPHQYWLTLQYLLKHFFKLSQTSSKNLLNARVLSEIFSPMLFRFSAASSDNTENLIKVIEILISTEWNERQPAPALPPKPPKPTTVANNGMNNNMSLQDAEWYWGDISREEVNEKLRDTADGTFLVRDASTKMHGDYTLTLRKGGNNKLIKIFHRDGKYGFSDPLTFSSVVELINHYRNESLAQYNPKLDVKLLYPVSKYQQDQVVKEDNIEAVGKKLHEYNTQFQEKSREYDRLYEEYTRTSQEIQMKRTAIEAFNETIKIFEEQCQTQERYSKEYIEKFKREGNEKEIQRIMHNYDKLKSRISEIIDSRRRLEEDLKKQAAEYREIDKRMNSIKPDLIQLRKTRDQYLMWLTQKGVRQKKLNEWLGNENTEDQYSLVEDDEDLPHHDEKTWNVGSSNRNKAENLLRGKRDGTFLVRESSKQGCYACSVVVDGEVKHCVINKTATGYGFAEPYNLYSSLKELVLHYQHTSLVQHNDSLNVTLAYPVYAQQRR
How it was run: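 Recombinant PI3K heterodimers with PIP2 substrate; reactions ran 30 min at room temperature with 10 μM ATP for p110α/p85α and 100 μM ATP for p110β/p85α. After stop, HTRF detection followed 17 h incubation in the dark at room temperature; HTRF ratio used as read-out.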

[3] = system: A549 cells; assay: Antiproliferation assay (MTS), A549; assay type: cell-based; settings: Homo sapiens; A549, 72 hours of drug treatment
[4] = system: PC-3 cells; assay: Antiproliferation assay (MTS), PC-3; assay type: cell-based; settings: Homo sapiens, PC3, 72 hours of drug treatment
Method: (1) Antiproliferation Assay
PC-3, U-87 MG, HCC1954 and BT474 cell lines were purchased from the American Type Culture Collection (ATCC, USA). PC-3 was grown in F12K medium (GIBCO) containing 10% FBS. U-87 MG was grown in Eagle's minimum essential medium (MEM, Sigma) supplemented with nonessential amino acids, L-glutamine, sodium pyruvate, and 10% FBS. HCC1954 was grown in RPMI medium (GIBCO) containing 10% FBS. […] All cells were incubated in a humidified atmosphere containing 5% CO2 at 37° C.
Cell lines were inoculated to the wells of a 96-well culture plate with 1000-5000 cells per well. The compounds were prepared and used to treat cells with less than 1% DMSO. After 72 hours of drug treatment, the viability of each cell line was examined by CellTiter 96 Aqueous Non-Radioactive Cell Proliferation Assay (Promega). The living cells were detectable by conversion of MTS into aqueous, soluble formazan. MTS/PMS solution was freshly prepared and 20 μl of MTS/PMS solution was added to each well of the 96-well cultured plate. The assay plate was incubated for 3 hours and the absorbance at 490 nm was measured by EMax ELISA Reader (Molecular Devices). The IC50 values of compounds were determined after carrying out assays at eight serially diluted concentrations of each compound in triplicate, and are the mean of three separate determinations. The results were analyzed using linear regression software (GraphPad Prism 5; GraphPad Software Inc.).

recombinant mTOR, sequence (P42345 1360-2549): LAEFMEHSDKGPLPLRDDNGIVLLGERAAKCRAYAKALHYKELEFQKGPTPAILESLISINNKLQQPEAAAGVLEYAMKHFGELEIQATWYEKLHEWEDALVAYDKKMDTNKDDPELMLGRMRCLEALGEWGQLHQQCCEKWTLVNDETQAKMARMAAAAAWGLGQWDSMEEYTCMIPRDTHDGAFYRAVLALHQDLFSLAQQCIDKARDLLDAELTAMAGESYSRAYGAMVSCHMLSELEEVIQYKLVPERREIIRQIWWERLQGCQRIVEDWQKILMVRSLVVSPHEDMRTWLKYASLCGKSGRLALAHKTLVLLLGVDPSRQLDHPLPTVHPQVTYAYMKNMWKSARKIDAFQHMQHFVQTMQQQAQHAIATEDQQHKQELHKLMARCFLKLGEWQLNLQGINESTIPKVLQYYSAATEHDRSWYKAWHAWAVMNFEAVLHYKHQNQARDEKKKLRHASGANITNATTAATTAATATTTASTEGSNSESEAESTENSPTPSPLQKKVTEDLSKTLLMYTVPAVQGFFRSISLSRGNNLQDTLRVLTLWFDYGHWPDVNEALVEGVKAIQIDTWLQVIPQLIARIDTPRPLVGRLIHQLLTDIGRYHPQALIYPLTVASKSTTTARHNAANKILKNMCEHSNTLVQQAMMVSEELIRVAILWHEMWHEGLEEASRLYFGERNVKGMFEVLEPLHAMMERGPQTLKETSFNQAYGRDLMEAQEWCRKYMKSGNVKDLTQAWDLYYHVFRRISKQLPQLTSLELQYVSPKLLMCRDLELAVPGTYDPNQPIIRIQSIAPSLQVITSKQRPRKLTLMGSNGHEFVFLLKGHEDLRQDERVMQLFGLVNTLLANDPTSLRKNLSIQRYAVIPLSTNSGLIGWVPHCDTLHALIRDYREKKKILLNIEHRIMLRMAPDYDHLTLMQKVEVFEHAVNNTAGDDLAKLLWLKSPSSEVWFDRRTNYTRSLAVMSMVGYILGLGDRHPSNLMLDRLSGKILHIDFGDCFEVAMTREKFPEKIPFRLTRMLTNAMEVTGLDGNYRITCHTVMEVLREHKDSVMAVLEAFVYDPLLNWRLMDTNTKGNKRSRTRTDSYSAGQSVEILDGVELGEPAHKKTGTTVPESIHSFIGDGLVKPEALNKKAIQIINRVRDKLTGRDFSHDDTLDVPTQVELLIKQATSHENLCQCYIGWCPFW

Structure (SMILES)	inhibition at 10 µM [1] [%]	inhibition at 0.5 µM [2] [%]	also measured
CSc1c(OCCN(C)C)nc(-c2cccc(O)c2)nc1N1CCOCC1 [MTR-0043, 3-[4-(2-Dimethylamino-ethoxy)-5-methylsulfanyl-6-morpholin-4-yl-pyrimidin-2-yl]-phenol]	96	85.4	–
CSc1c(Cl)nc(-c2ccc(NC(=O)Nc3ccccc3)cc2)nc1N1CCOCC1 [MTR-0091, 1-[4-(4-Chloro-5-methylsulfanyl-6-morpholin-4-yl-pyrimidin-2-yl)-phenyl]-3-phenyl-urea]	92	60.9	–
CCOc1c(C(=O)N2CCN(S(C)(=O)=O)CC2)nc(-c2ccc(NC(=O)Nc3ccccc3)cc2)nc1N1CCOCC1 [MTR-0145, 1-{4-[5-Ethoxy-4-(4-methanesulfonyl-piperazine-1-carbonyl)-6-morpholin-4-yl-pyrimidin-2-yl]-phenyl}-3-phenyl-urea]	100	–	IC50 [3]: 1.36 ± 0.34 µM; IC50 [4]: 0.432 ± 0.02 µM
CCOC(=O)c1nc(-c2ccc(NC(=O)Nc3cccc(F)c3)cc2)nc(N2CCOCC2)c1OCC [MTR-0147, 5-Ethoxy-2-{4-[3-(3-fluoro-phenyl)-ureido]-phenyl}-6-morpholin-4-yl-pyrimidine-4-carboxylic acid ethyl ester]	95	52.4	–
CSc1cnc(-c2ccc(NC(=O)Nc3ccccc3)cc2)nc1N1CCOCC1 [MTR-0162, 1-[4-(5-Methylsulfanyl-4-morpholin-4-yl-pyrimidin-2-yl)-phenyl]-3-phenyl-urea]	95	102	–
COc1cnc(-c2ccc(NC(=O)Nc3cccc(F)c3)cc2)nc1N1CCOCC1 [MTR-0164, 1-(3-Fluoro-phenyl)-3-[4-(5-methoxy-4-morpholin-4-yl-pyrimidin-2-yl)-phenyl]-urea]	91	84.7	–
CCOc1c(CN2CCN(S(C)(=O)=O)CC2)nc(-c2ccc(NC(=O)Nc3ccccc3)cc2)nc1N1CCOCC1 [MTR-0169, 1-{4-[5-Ethoxy-4-(4-methanesulfonyl-piperazin-1-ylmethyl)-6-morpholin-4-yl-pyrimidin-2-yl]-phenyl}-3-phenyl-urea]	96	52.7	–
CSc1cnc(-c2ccc(NC(=O)Nc3ccc(F)cc3)cc2)nc1N1CCOCC1 [MTR-0178, 1-(4-Fluoro-phenyl)-3-[4-(5-methylsulfanyl-4-morpholin-4-yl-pyrimidin-2-yl)-phenyl]-urea]	90	48.8	–
CSc1c(Cl)nc(-c2ccc(NC(=O)Nc3cccc(NC(C)=O)c3)cc2)nc1N1CCOCC1 [MTR-0270, N-(3-{3-[4-(4-Chloro-5-methylsulfanyl-6-morpholin-4-yl-pyrimidin-2-yl)-phenyl]-ureido}-phenyl)-acetamide]	96	41.1	–
COc1cnc(-c2ccc(NC(=O)Nc3ccc(N4CCOCC4=O)cc3)cc2F)nc1N1CCOCC1 [MTR-0406, 1-[3-Fluoro-4-(5-methoxy-4-morpholin-4-yl-pyrimidin-2-yl)-phenyl]-3-[4-(3-oxo-morpholin-4-yl)-phenyl]-urea]	–	78.4	–
COc1cnc(-c2ccc(NC(=O)Nc3ccc(C(N)=O)cc3)cc2F)nc1N1CCOCC1 [MTR-0407, 4-{3-[3-Fluoro-4-(5-methoxy-4-morpholin-4-yl-pyrimidin-2-yl)-phenyl]-ureido}-benzamide]	–	63.4	–
CSc1c(Cl)nc(-c2ccc(NC(=O)Nc3ccc(S(N)(=O)=O)cc3)cc2F)nc1N1CCOCC1 [MTR-0412, 4-{3-[4-(4-Chloro-5-methylsulfanyl-6-morpholin-4-yl-pyrimidin-2-yl)-3-fluoro-phenyl]-ureido}-benzenesulfonamide]	–	82.7	–
CCOc1cnc(-c2ccc(NC(=O)Nc3ccc(N4CCN(S(C)(=O)=O)CC4)cc3)cc2)nc1N1CCOCC1 [MTR-0420, 1-[4-(5-Ethoxy-4-morpholin-4-yl-pyrimidin-2-yl)-phenyl]-3-[4-(4-methanesulfonyl-piperazin-1-yl)-phenyl]-urea]	–	58.6	–
CCOc1cnc(-c2ccc(NC(=O)Nc3ccc(C(=O)N4CCOCC4)cc3)cc2)nc1N1CCOCC1 [MTR-0421, 1-[4-(5-Ethoxy-4-morpholin-4-yl-pyrimidin-2-yl)-phenyl]-3-[4-(morpholine-4-carbonyl)-phenyl]-urea]	–	98.7	–
CCOc1cnc(-c2ccc(NC(=O)Nc3ccc(S(C)(=O)=O)cc3)cc2)nc1N1CCOCC1 [MTR-0424, 1-[4-(5-Ethoxy-4-morpholin-4-yl-pyrimidin-2-yl)-phenyl]-3-(4-methanesulfonyl-phenyl)-urea]	–	71.5	–
COc1cnc(-c2ccc(NC(=O)Nc3cccc(NC(C)=O)c3)cc2)nc1N1CCOCC1 [MTR-0426, N-(3-{3-[4-(5-Methoxy-4-morpholin-4-yl-pyrimidin-2-yl)-phenyl]-ureido}-phenyl)-acetamide]	–	58.4	–
COc1cnc(-c2ccc(NC(=O)Nc3ccc(C(=O)NCCCN(C)C)cc3)cc2)nc1N1CCOCC1 [MTR-0427, N-(3-Dimethylamino-propyl)-4-{3-[4-(5-methoxy-4-morpholin-4-yl-pyrimidin-2-yl)-phenyl]-ureido}-benzamide]	–	71.1	–
CSc1c(Cl)nc(-c2ccc(NC(=O)Nc3ccc(C(=O)N4CCC(N(C)C)CC4)cc3)cc2)nc1N1CCOCC1 [MTR-0436, 1-[4-(4-Chloro-5-methylsulfanyl-6-morpholin-4-yl-pyrimidin-2-yl)-phenyl]-3-[4-(4-dimethylamino-piperidine-1-carbonyl)-phenyl]-urea]	–	71.5	–
CCOc1cnc(-c2ccc(NC(=O)Nc3ccc(NC(C)=O)nc3)cc2)nc1N1CCOCC1 [MTR-0442, N-(5-{3-[4-(5-Ethoxy-4-morpholin-4-yl-pyrimidin-2-yl)-phenyl]-ureido}-pyridin-2-yl)-acetamide]	–	79.1	–
CCOc1cnc(-c2ccc(NC(=O)Nc3ccncc3)cc2)nc1N1CCOCC1 [MTR-0446, 1-[4-(5-Ethoxy-4-morpholin-4-yl-pyrimidin-2-yl)-phenyl]-3-pyridin-4-yl-urea]	–	66.3	–
COc1cnc(-c2ccc(NC(=O)Nc3ccc(NS(C)(=O)=O)cc3)cc2)nc1N1CCOCC1 [MTR-0449, N-(4-{3-[4-(5-Methoxy-4-morpholin-4-yl-pyrimidin-2-yl)-phenyl]-ureido}-phenyl)-methanesulfonamide]	–	75.4	–
O=C(Nc1ccc(C(=O)N2CCOCC2)cc1)Nc1ccc(-c2ncc(OCCN3CCOCC3)c(N3CCOCC3)n2)cc1 [MTR-0454, 1-[4-(Morpholine-4-carbonyl)-phenyl]-3-{4-[4-morpholin-4-yl-5-(2-morpholin-4-yl-ethoxy)-pyrimidin-2-yl]-phenyl}-urea]	–	74.4	–
O=C(Nc1ccc(-c2ncc(OCCN3CCOCC3)c(N3CCOCC3)n2)cc1)Nc1ccc(N2CCOCC2=O)cc1 [MTR-0455, 1-{4-[4-Morpholin-4-yl-5-(2-morpholin-4-yl-ethoxy)-pyrimidin-2-yl]-phenyl}-3-[4-(3-oxo-morpholin-4-yl)-phenyl]-urea]	–	48.9	–
NC(=O)c1ccc(NC(=O)Nc2ccc(-c3ncc(OCCN4CCOCC4)c(N4CCOCC4)n3)cc2)cc1 [MTR-0456, 4-(3-{4-[4-Morpholin-4-yl-5-(2-morpholin-4-yl-ethoxy)-pyrimidin-2-yl]-phenyl}-ureido)-benzamide]	–	52.6	–
CSc1c(-c2cccnc2)nc(-c2ccc(NC(=O)Nc3ccc(N4CCOCC4=O)cc3)cc2)nc1N1CCOCC1 [MTR-0457, 1-[4-(5-Methylsulfanyl-4-morpholin-4-yl-6-pyridin-3-yl-pyrimidin-2-yl)-phenyl]-3-[4-(3-oxo-morpholin-4-yl)-phenyl]-urea]	–	47.4	–
CSc1cnc(-c2ccc(NC(=O)Nc3ccc(C(=O)N4CCOCC4)cc3)cc2)nc1N1CCOCC1 [MTR-0461, 1-[4-(5-Methylsulfanyl-4-morpholin-4-yl-pyrimidin-2-yl)-phenyl]-3-[4-(morpholine-4-carbonyl)-phenyl]-urea]	–	93.4	–
CSc1cnc(-c2ccc(NC(=O)Nc3ccncc3)cc2)nc1N1CCOCC1 [MTR-0462, 1-[4-(5-Methylsulfanyl-4-morpholin-4-yl-pyrimidin-2-yl)-phenyl]-3-pyridin-4-yl-urea]	–	67.9	–
CSc1c(Cl)nc(-c2ccc(NC(=O)Nc3ccncc3)cc2)nc1N1CCOCC1 [MTR-0469, 1-[4-(4-Chloro-5-methylsulfanyl-6-morpholin-4-yl-pyrimidin-2-yl)-phenyl]-3-pyridin-4-yl-urea]	–	81.7	–
